Measurements as given in patent US9029378B2, “Substituted bicyclic aromatic carboxamide and urea compounds as vanilloid receptor ligands” (Gruenenthal GmbH, priority 2011, dated 2015).

biological target: T1, vanilloid receptor 1 (VR1/TRPV1 receptor) (Homo sapiens, UniProt Q8NER1); experiment: Functional testing on the vanilloid receptor 1 (FLIPR Ca2+ influx assay, capsaicin); format: cell-based, human being; parameters: key to (f) (human being) Cap: effect in words (agonist / no effect): AG=agonist; NE=no effect; conditions: @0.1 μM; Cap=capsaicin; read-out: inhibition (as a percentage), (f) (human being) Cap
T1 construct: expressed in transfected cells; host or cells: CHO K1
Protocol: Furthermore, preference may be given to compounds according to the invention that cause a 50 percent displacement of capsaicin, which is present at a concentration of 100 nM, in a FLIPR assay with CHO K1 cells which were transfected with the human VR1 gene at a concentration of less than 2,000 nM, preferably less than 1,000 nM, particularly preferably less than 300 nM, most particularly preferably less than 100 nM, even more preferably less than 75 nM, additionally preferably less than 50 nM, most preferably less than 10 nM.
In the process, the Ca^2+ influx is quantified in the FLIPR assay with the aid of a Ca^2+-sensitive dye (type Fluo-4, Molecular Probes Europe BV, Leiden, the Netherlands) in a fluorescent imaging plate reader (FLIPR, Molecular Devices, Sunnyvale, USA), as described hereinafter.
Pharmacological Methods I. Functional Testing Carried Out on the Vanilloid Receptor 1 (VR1/TRPV1 Receptor) […]
The number of cells in the suspension is set to 3×10^5 per mL and 150 μL of this suspension are in each case introduced into a recess in the cell culture plates coated as described hereinbefore. In the incubator the plates are left for two to three days at 37° C., 5% by volume of CO2 and 95% relative humidity. Subsequently, the cells are loaded with 2 μM of Fluo-4 and 0.01% by volume of Pluronic F127 (Molecular Probes Europe BV, Leiden, the Netherlands) in HBSS buffer (Hank's buffered saline solution, Gibco Invitrogen GmbH, Karlsruhe, Germany) for 30 min at 37° C., washed 3 times with HBSS buffer and after further incubation for 15 minutes at room temperature used for Ca^2+ measurement in a FLIPR assay. The Ca^2+-dependent fluorescence is in this case measured before and after the addition of substances (λex=488 nm, λem=540 nm). Quantification is carried out by measuring the highest fluorescence intensity (FC, fluorescence counts) over time.
The FLIPR protocol consists of 2 substance additions. First the compounds to be tested (10 μM) are pipetted onto the cells and the Ca^2+ influx is compared with the control (capsaicin 10 μM). This provides the result in % activation based on the Ca^2+ signal after the addition of 10 μM of capsaicin (CP). After 5 minutes' incubation, 100 nM of capsaicin are applied and the Ca^2+ influx is also determined.
Desensitising agonists and antagonists lead to suppression of the Ca^2+ influx. The % inhibition is calculated compared to the maximum achievable inhibition with 10 μM of capsazepine. Triple analyses (n=3) are carried out and repeated in at least 3 independent experiments (N=4). Starting from the percentage displacement caused by different concentrations of the compounds to be tested of general formula I, IC50 inhibitory concentrations which cause a 50-percent displacement of capsaicin were calculated. Ki values for the test substances were obtained by conversion by means of the Cheng-Prusoff equation (Cheng, Prusoff; Biochem. Pharmacol. 22, 3099-3108, 1973).
The affinity of the compounds of to the invention for the vanilloid receptor 1 (VR1/TRPV1 receptor) was determined as described hereinbefore (pharmacological method I). The compounds of the invention display outstanding affinity to the VR1/TRPV1 receptor (Table 2). In Table 2 the abbreviations below have the following meanings: • Cap=capsaicin • AG=agonist • NE=no effect
The value after the “@” symbol indicates the concentration at which the inhibition (as a percentage) was respectively determined.

T1 sequence (Q8NER1 whole entry): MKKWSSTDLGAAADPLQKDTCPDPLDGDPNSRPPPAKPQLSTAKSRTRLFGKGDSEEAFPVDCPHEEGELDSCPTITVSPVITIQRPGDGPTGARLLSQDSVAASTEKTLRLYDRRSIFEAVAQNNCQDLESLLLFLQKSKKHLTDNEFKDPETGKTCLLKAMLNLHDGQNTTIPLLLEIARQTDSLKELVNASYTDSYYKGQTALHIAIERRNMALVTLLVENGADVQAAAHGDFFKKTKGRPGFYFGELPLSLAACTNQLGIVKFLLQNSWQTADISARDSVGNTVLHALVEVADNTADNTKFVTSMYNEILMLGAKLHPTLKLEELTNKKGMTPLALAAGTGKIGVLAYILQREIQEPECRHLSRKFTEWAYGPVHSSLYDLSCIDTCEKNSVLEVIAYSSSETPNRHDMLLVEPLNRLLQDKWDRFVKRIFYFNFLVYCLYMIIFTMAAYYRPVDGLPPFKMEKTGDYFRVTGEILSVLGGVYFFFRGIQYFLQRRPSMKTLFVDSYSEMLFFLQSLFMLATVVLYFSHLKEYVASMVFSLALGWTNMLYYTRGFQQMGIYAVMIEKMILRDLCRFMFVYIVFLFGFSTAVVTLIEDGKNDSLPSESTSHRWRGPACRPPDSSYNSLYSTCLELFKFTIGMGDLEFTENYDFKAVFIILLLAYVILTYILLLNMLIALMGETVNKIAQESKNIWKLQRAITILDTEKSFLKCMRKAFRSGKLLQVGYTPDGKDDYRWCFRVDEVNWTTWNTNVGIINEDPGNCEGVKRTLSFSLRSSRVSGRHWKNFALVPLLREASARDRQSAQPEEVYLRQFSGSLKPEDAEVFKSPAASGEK

| inhibition at 0.1 µM | Compound |
| --- | --- |
| 37% | CC1CCN(c2nc(C(F)(F)F)ccc2CNC(=O)Nc2cccc3cc[nH]c23)CC1 [Example 36, 1-(1H-Indol-7-yl)-3-((2-(4-methylpiperidin-1-yl)-6-(trifluoromethyl)pyridin-3-yl)methyl)urea] |

same assay, conditions: @5 μM; Cap=capsaicin; read-out: inhibition (as a percentage), (f) (human being) Cap

| inhibition at 5 µM | Compound |
| --- | --- |
| 22% | CC1CCN(c2nc(C(F)(F)F)ccc2CNC(=O)Nc2ccnc3[nH]ncc23)CC1 [Example 9, 1-((2-(4-Methylpiperidin-1-yl)-6-(trifluoromethyl)pyridin-3-yl)methyl)-3-(1H-pyrazolo[3,4-b]pyridin-4-yl)urea] |
| 19% | O=C(NCc1ccc(C(F)(F)F)nc1SC1CCCCC1)Nc1ccc2ccccc2n1 [Example 11, 1-((2-(Cyclohexylthio)-6-(trifluoromethyl)pyridin-3-yl)methyl)-3-(quinolin-2-yl)urea] |
| 39% | CC1CCN(c2nc(C(F)(F)F)ccc2CNC(=O)Nc2cc3ccccc3cn2)CC1 [Example 21, 1-(Isoquinolin-3-yl)-3-((2-(4-methylpiperidin-1-yl)-6-(trifluoromethyl)pyridin-3-yl)methyl)urea] |
| 47% | CC(=O)Nc1nc2ccc(NC(=O)NCc3ccc(C(F)(F)F)nc3N3CCC(C)CC3)cc2s1 [Example 35, N-(6-(3-((2-(4-Methylpiperidin-1-yl)-6-(trifluoromethyl)pyridin-3-yl)methyl)ureido)benzo[d]thiazol-2-yl)acetamide] |

same assay, conditions: Cap=capsaicin

| Compound | (f) (human being) Cap: effect in words (agonist / no effect) |
| --- | --- |
| CC1CCN(c2nc(C(F)(F)F)ccc2CNC(=O)Nc2ccnc3ccccc23)CC1 [Example 17, 1-((2-(4-Methylpiperidin-1-yl)-6-(trifluoromethyl)pyridin-3-yl)methyl)-3-(quinolin-4-yl)urea] | AG |
| CC1CCN(c2nc(C(F)(F)F)ccc2CNC(=O)Nc2nccc3ccccc23)CC1 [Example 20, 1-(Isoquinolin-1-yl)-3-((2-(4-methylpiperidin-1-yl)-6-(trifluoromethyl)pyridin-3-yl)methyl)urea] | NE |

Results, then the compound that gave them:

| (f) (human being) Cap: effect in words (agonist / no effect) | Compound |
| --- | --- |
| AG | CC1CCN(c2nc(C(F)(F)F)ccc2CNC(=O)Nc2ccc3ncn(C)c3c2)CC1 [Example 26, 1-(1-Methyl-1H-benzo[d]imidazol-6-yl)-3-((2-(4-methylpiperidin-1-yl)-6-(trifluoromethyl)pyridin-3-yl)methyl)urea] |
| AG | CC(=O)Nc1nc2cc(NC(=O)NCc3ccc(C(F)(F)F)nc3N3CCC(C)CC3)ccc2s1 [Example 31, N-(5-(3-((2-(4-methylpiperidin-1-yl)-6-(trifluoromethyl)pyridin-3-yl)methyl)ureido)benzo[d]thiazol-2-yl)acetamide] |

same assay, conditions: Cap=capsaicin (100 nM); Ki from IC50 by Cheng-Prusoff equation; read-out: (f) Ki (human being) [nM] Cap

| Compound | Ki |
| --- | --- |
| CC1CCN(c2nc(C(F)(F)F)ccc2CNC(=O)Nc2cnc3[nH]ncc3c2)CC1 [Example 5, 1-((2-(4-methylpiperidin-1-yl)-6-(trifluoromethyl)pyridin-3-yl)methyl)-3-(1H-pyrazolo[3,4-b]pyridin-5-yl)urea] | 21 nM |
| CC1CCN(c2nc(C(F)(F)F)ccc2CNC(=O)C(C)c2ccnc3[nH]ncc23)CC1 (stereo not drawn) [Example 8, N-((2-(4-Methylpiperidin-1-yl)-6-(trifluoromethyl)pyridin-3-yl)methyl)-2-(1H-pyrazolo[3,4-b]pyridin-4-yl)propanamide] | 2 nM |
| CC1CCN(c2nc(C(F)(F)F)ccc2CNC(=O)Nc2cnc3ccccc3c2)CC1 [Example 12, 1-((2-(4-Methylpiperidin-1-yl)-6-(trifluoromethyl)pyridin-3-yl)methyl)-3-(quinolin-3-yl)urea] | 9 nM |
| CC1CCN(c2nc(C(F)(F)F)ccc2CNC(=O)C(C)c2cnc3ccccc3c2)CC1 (stereo not drawn) [Example 14, N-((2-(4-Methylpiperidin-1-yl)-6-(trifluoromethyl)pyridin-3-yl)methyl)-2-(quinolin-3-yl)propanamide] | 44 nM |
| CC(C(=O)NCc1ccc(C(F)(F)F)nc1SC1CCCCC1)c1cnc2ccccc2c1 (stereo not drawn) [Example 15, N-((2-(Cyclohexylthio)-6-(trifluoromethyl)pyridin-3-yl)methyl)-2-(quinolin-3-yl)propanamide] | 50 nM |
| CC1CCN(c2nc(C(F)(F)F)ccc2CNC(=O)Nc2cncc3ccccc23)CC1 [Example 18, 1-(Isoquinolin-4-yl)-3-((2-(4-methylpiperidin-1-yl)-6-(trifluoromethyl)pyridin-3-yl)methyl)urea] | 2 nM |
| O=C(NCc1ccc(C(F)(F)F)nc1SC1CCCCC1)Nc1cncc2ccccc12 [Example 19, 1-((2-(Cyclohexylthio)-6-(trifluoromethyl)pyridin-3-yl)methyl)-3-(isoquinolin-4-yl)urea] | 4 nM |
| CC1CCN(c2nc(C(F)(F)F)ccc2CNC(=O)Nc2ccc3cc[nH]c3c2)CC1 [Example 22, 1-(1H-Indol-6-yl)-3-((2-(4-methylpiperidin-1-yl)-6-(trifluoromethyl)pyridin-3-yl)methyl)urea] | 24 nM |

Continued, values first:

| Ki | Compound |
| --- | --- |
| 9 nM | 1-(6,7-Dihydro-5H-cyclopenta[b]pyridin-3-yl)-3-((2-(4-methylpiperidin-1-yl)-6-(trifluoromethyl)pyridin-3-yl)methyl)urea [Example 1] |
| 13 nM | CC1CCN(c2nc(C(F)(F)F)ccc2CNC(=O)Nc2ccc3[nH]ccc3c2)CC1 [Example 23, 1-(1H-Indol-5-yl)-3-((2-(4-methylpiperidin-1-yl)-6-(trifluoromethyl)pyridin-3-yl)methyl)urea] |
| 26 nM | Cc1cc2cc(NC(=O)NCc3ccc(C(F)(F)F)nc3N3CCC(C)CC3)ccc2[nH]1 [Example 24, 1-(2-Methyl-1H-indol-5-yl)-3-((2-(4-methylpiperidin-1-yl)-6-(trifluoromethyl)pyridin-3-yl)methyl)urea] |
| 7 nM | CC1CCN(c2nc(C(F)(F)F)ccc2CNC(=O)Nc2ccc3cnn(C)c3c2)CC1 [Example 27, 1-(1-Methyl-1H-indazol-6-yl)-3-((2-(4-methylpiperidin-1-yl)-6-(trifluoromethyl)pyridin-3-yl)methyl)urea] |
| 5 nM | CC1CCN(c2nc(C(F)(F)F)ccc2CNC(=O)Nc2ccc3scnc3c2)CC1 [Example 29, 1-(Benzo[d]thiazol-5-yl)-3-((2-(4-methylpiperidin-1-yl)-6-(trifluoromethyl)pyridin-3-yl)methyl)urea] |
| 22 nM | Cc1nc2cc(NC(=O)NCc3ccc(C(F)(F)F)nc3N3CCC(C)CC3)ccc2s1 [Example 30, 1-(2-Methylbenzo[d]thiazol-5-yl)-3-((2-(4-methylpiperidin-1-yl)-6-(trifluoromethyl)pyridin-3-yl)methyl)urea] |
| 4 nM | CC1CCN(c2nc(C(F)(F)F)ccc2CNC(=O)Nc2ccc3ncsc3c2)CC1 [Example 32, 1-(Benzo[d]thiazol-6-yl)-3-((2-(4-methylpiperidin-1-yl)-6-(trifluoromethyl)pyridin-3-yl)methyl)urea] |
| 4 nM | Cc1nc2ccc(NC(=O)NCc3ccc(C(F)(F)F)nc3N3CCC(C)CC3)cc2s1 [Example 33, 1-(2-Methylbenzo[d]thiazol-6-yl)-3-((2-(4-methylpiperidin-1-yl)-6-(trifluoromethyl)pyridin-3-yl)methyl)urea] |
| 50 nM | CC1CCN(c2nc(C(F)(F)F)ccc2CNC(=O)Nc2ccc3nc(N)sc3c2)CC1 [Example 34, 1-(2-Aminobenzo[d]thiazol-6-yl)-3-((2-(4-methylpiperidin-1-yl)-6-(trifluoromethyl)pyridin-3-yl)methyl)urea] |
| 4 nM | Cc1[nH]c2c(NC(=O)NCc3ccc(C(F)(F)F)nc3N3CCC(C)CC3)cccc2c1C [Example 37, 1-(2,3-Dimethyl-1H-indol-7-yl)-3-((2-(4-methylpiperidin-1-yl)-6-(trifluoromethyl)pyridin-3-yl)methyl)urea] |
